Experimental data: patent US6825170B2, “6-O-acyl ketolide antibacterials” (Ortho-McNeil Pharmaceutical, Inc., priority 2001, dated 2004)
In brackets after ≈: the same amount, converted by molar mass.

Assays:
Assay in all cases: MIC, microdilution broth method (NCCLS)
Format in all cases: cell-based
Conditions in all cases: 35° C., 16-20 hours
[1] = test system: S. pneumoniae ATCC49619
How it was run: (§1)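 NCCLS microdilution method in cation-adjusted Mueller-Hinton broth, serial two-fold dilutions, final inoculum approximately 5×10^4 CFU/well. MIC read after 16-20 hours' incubation at 35° C.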

[2] = test system: E. coli OC2605
How it was run: as §1

[3] = test system: S. aureus ATCC29213
How it was run: as §1

[4] = test system: E. faecalis ATCC29212
How it was run: as §1

[5] = test system: H. influenzae ATCC49247
How it was run: as §1

| Compound | MIC (D: S. pneumoniae ATCC49619) [1] [µg/mL] | MIC (A: E. coli OC2605) [2] [µg/mL] | MIC (B: S. aureus ATCC29213) [3] [µg/mL] | MIC (C: E. faecalis ATCC29212) [4] [µg/mL] | MIC (E: H. influenzae ATCC49247) [5] [µg/mL] |
| --- | --- | --- | --- | --- | --- |
| CCC1OC(=O)C(C)C(=O)C(C)C(OC2OC(C)CC(N(C)C)C2O)C(C)(OC(=O)n2ccc(C=O)c2)CC(C)C(=O)C(C)C2NC(=O)OC12C (centres unmarked) [Compound 3] | 1 (≈ 1.39 µM) | >16 | >16 | 4 (≈ 5.56 µM) | >16 |
| CCC1OC(=O)C(C)C(=O)C(C)C(OC2OC(C)CC(N(C)C)C2O)C(C)(OC(=O)n2ccc(C#N)c2)CC(C)C(=O)C(C)C2NC(=O)OC12C (centres unmarked) [Compound 4] | 1 (≈ 1.4 µM) | >16 | >16 | 4 (≈ 5.58 µM) | >16 |
| CC[C@H]1OC(=O)[C@H](C)C(=O)[C@H](C)[C@@H](O[C@@H]2O[C@H](C)C[C@H](N(C)C)[C@H]2O)[C@](C)(OC(=O)SCc2ccc(-c3ncccn3)cc2)C[C@@H](C)C(=O)[C@H](C)[C@H]2NC(=O)O[C@@]21C [Compound 834] | <0.015 | – | 0.5 (≈ 0.605 µM) | 0.12 (≈ 0.145 µM) | 8 (≈ 9.67 µM) |
| CC[C@H]1OC(=O)[C@H](C)C(=O)[C@H](C)[C@@H](O[C@@H]2O[C@H](C)C[C@H](N(C)C)[C@H]2O)[C@](C)(OC(=O)SCCc2ccc(-c3ncccn3)cc2)C[C@@H](C)C(=O)[C@H](C)[C@H]2NC(=O)O[C@@]21C [Compound 835] | 0.03 (≈ 0.0357 µM) | – | 0.5 (≈ 0.595 µM) | 0.12 (≈ 0.143 µM) | 4 (≈ 4.76 µM) |
| CC[C@H]1OC(=O)[C@H](C)C(=O)[C@H](C)[C@@H](O[C@@H]2O[C@H](C)C[C@H](N(C)C)[C@H]2O)[C@](C)(OC(=O)SCCc2ccc(-n3cncn3)cc2)C[C@@H](C)C(=O)[C@H](C)[C@H]2NC(=O)O[C@@]21C [Compound 836] | 0.03 (≈ 0.0361 µM) | – | 0.25 (≈ 0.301 µM) | 0.12 (≈ 0.145 µM) | 1 (≈ 1.2 µM) |
| CC[C@H]1OC(=O)[C@H](C)C(=O)[C@H](C)[C@@H](O[C@@H]2O[C@H](C)C[C@H](N(C)C)[C@H]2O)[C@](C)(OC(=O)SC/C=C/c2cnc3ccccc3c2)C[C@@H](C)C(=O)[C@H](C)[C@H]2NC(=O)O[C@@]21C [Compound 837] | 0.12 (≈ 0.145 µM) | – | 2 (≈ 2.42 µM) | 0.25 (≈ 0.303 µM) | 8 (≈ 9.68 µM) |
| CC[C@H]1OC(=O)[C@H](C)C(=O)[C@H](C)[C@@H](O[C@@H]2O[C@H](C)C[C@H](N(C)C)[C@H]2O)[C@](C)(OC(=O)SCc2ccc(-c3ccccn3)s2)C[C@@H](C)C(=O)[C@H](C)[C@H]2NC(=O)O[C@@]21C [Compound 839] | 0.06 (≈ 0.0721 µM) | – | 1 (≈ 1.2 µM) | 0.12 (≈ 0.144 µM) | 2 (≈ 2.4 µM) |
| CC[C@H]1OC(=O)[C@H](C)C(=O)[C@H](C)[C@@H](O[C@@H]2O[C@H](C)C[C@H](N(C)C)[C@H]2O)[C@](C)(OC(=O)SCc2cn(-c3ncccn3)cn2)C[C@@H](C)C(=O)[C@H](C)[C@H]2NC(=O)O[C@@]21C [Compound 841] | 0.03 (≈ 0.0367 µM) | – | 0.5 (≈ 0.612 µM) | 0.12 (≈ 0.147 µM) | 2 (≈ 2.45 µM) |
| CC[C@H]1OC(=O)[C@H](C)C(=O)[C@H](C)[C@@H](O[C@@H]2O[C@H](C)C[C@H](N(C)C)[C@H]2O)[C@](C)(OC(=O)Cc2ccccc2)C[C@@H](C)C(=O)[C@H](C)[C@H]2NC(=O)O[C@@]21C [Compound 843] | 0.5 (≈ 0.697 µM) | – | 8 (≈ 11.2 µM) | 2 (≈ 2.79 µM) | 16 (≈ 22.3 µM) |
| CC[C@H]1OC(=O)[C@H](C)C(=O)[C@H](C)[C@@H](O[C@@H]2O[C@H](C)C[C@H](N(C)C)[C@H]2O)[C@](C)(OC(=O)CCCc2ccccc2)C[C@@H](C)C(=O)[C@H](C)[C@H]2NC(=O)O[C@@]21C [Compound 844] | 0.03 (≈ 0.0403 µM) | – | 0.5 (≈ 0.671 µM) | 0.12 (≈ 0.161 µM) | 4 (≈ 5.37 µM) |

Second part, the compound after the results:

| MIC (D: S. pneumoniae ATCC49619) [1] [µg/mL] | MIC (A: E. coli OC2605) [2] [µg/mL] | MIC (B: S. aureus ATCC29213) [3] [µg/mL] | MIC (C: E. faecalis ATCC29212) [4] [µg/mL] | MIC (E: H. influenzae ATCC49247) [5] [µg/mL] | Compound |
| --- | --- | --- | --- | --- | --- |
| 0.5 (≈ 0.723 µM) | >16 | >16 | 8 (≈ 11.6 µM) | >16 | CCC1OC(=O)C(C)C(=O)C(C)C(OC2OC(C)CC(N(C)C)C2O)C(C)(OC(=O)n2cccc2)CC(C)C(=O)C(C)C2NC(=O)OC12C (centres unmarked) [Compound 2] |
| 0.5 (≈ 0.761 µM) | >16 | 16 (≈ 24.4 µM) | 4 (≈ 6.09 µM) | 8 (≈ 12.2 µM) | CCC1OC(=O)C(C)C(=O)C(C)C(OC2OC(C)CC(N(C)C)C2O)C(C)(OC(=O)NN)CC(C)C(=O)C(C)C2NC(=O)OC12C (centres unmarked) [Compound 5] |
| 0.03 (≈ 0.0395 µM) | 16 (≈ 21.1 µM) | 0.12 (≈ 0.158 µM) | 0.12 (≈ 0.158 µM) | 1 (≈ 1.32 µM) | CCC1OC(=O)C(C)C(=O)C(C)C(OC2OC(C)CC(N(C)C)C2O)C(C)(OC(=O)OCC=Cc2ccccc2)CC(C)C(=O)C(C)C2NC(=O)OC12C (centres unmarked) [Compound 6] |
| 0.06 (≈ 0.0703 µM) | – | 0.5 (≈ 0.586 µM) | 0.25 (≈ 0.293 µM) | 16 (≈ 18.8 µM) | CC[C@H]1OC(=O)[C@H](C)C(=O)[C@H](C)[C@@H](O[C@@H]2O[C@H](C)C[C@H](N(C)C)[C@H]2O)[C@](C)(OC(=O)SC/C=C/c2ccc(-c3ncccn3)cc2)C[C@@H](C)C(=O)[C@H](C)[C@H]2NC(=O)O[C@@]21C [Compound 833] |
| 0.06 (≈ 0.075 µM) | – | 0.25 (≈ 0.313 µM) | 0.12 (≈ 0.15 µM) | 1 (≈ 1.25 µM) | CC[C@H]1OC(=O)[C@H](C)C(=O)[C@H](C)[C@@H](O[C@@H]2O[C@H](C)C[C@H](N(C)C)[C@H]2O)[C@](C)(OC(=O)SCc2cnc3ccccc3c2)C[C@@H](C)C(=O)[C@H](C)[C@H]2NC(=O)O[C@@]21C [Compound 838] |
| 0.06 (≈ 0.0735 µM) | – | 0.5 (≈ 0.613 µM) | 0.12 (≈ 0.147 µM) | 2 (≈ 2.45 µM) | CC[C@H]1OC(=O)[C@H](C)C(=O)[C@H](C)[C@@H](O[C@@H]2O[C@H](C)C[C@H](N(C)C)[C@H]2O)[C@](C)(OC(=O)SCc2ccc(-n3cncn3)cc2)C[C@@H](C)C(=O)[C@H](C)[C@H]2NC(=O)O[C@@]21C [Compound 840] |
| 4 (≈ 4.94 µM) | – | >16 | >16 | >16 | CC[C@H]1OC(=O)[C@H](C)C(=O)[C@H](C)[C@@H](O[C@@H]2O[C@H](C)C[C@H](N(C)C)[C@H]2O)[C@](C)(OC(=O)n2ccc(C(=N)Cc3ccccc3)c2)C[C@@H](C)C(=O)[C@H](C)[C@H]2NC(=O)O[C@@]21C [Compound 845] |
| 0.25 (≈ 0.299 µM) | – | 8 (≈ 9.56 µM) | 1 (≈ 1.19 µM) | 2 (≈ 2.39 µM) | CCC1OC(=O)C(C)C(=O)C(C)C(OC2OC(C)CC(N(C)C)C2O)C(C)(OC(=O)n2ccc(C(=N)CCCc3ccccc3)c2)CC(C)C(=O)C(C)C2NC(=O)OC12C (centres unmarked) [Compound 846] |
